# Experimental data published in PubChem BioAssay (NCI).
#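 Briefly, cells in 96-well plates were exposed to five compound concentrations for 48 h, and endpoints were estimated by linear interpolation. GI50 is the concentration that inhibits growth by half. The concentration for full growth arrest is given as TGI.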
# Tests used:
# Test in all cases: NCI-60 cell line screen, 48 h
# [1] = system: NCI-H522 lung
# [2] = system: COLO 205 colon
# [3] = system: HOP-62 NSCLC
# [4] = system: UACC-62 melanoma
# [5] = system: PC-3 prostate
# [6] = system: LOX IMVI melanoma
# [7] = system: SNB-75 CNS
# [8] = system: NCI-H226 lung
structure (smiles),measurement,setting,value
Cn1c(=Nc2ccc(Cl)cc2)sc2ccccc21,TGI,[1],35 µM
same,TGI,[2],81.3 µM
same,TGI,[3],> 100 µM
same,TGI,[4],> 100 µM
same,TGI,[5],> 100 µM
same,TGI,[6],> 100 µM
same,TGI,[7],> 100 µM
same,TGI,[8],> 100 µM
C[C@H]1C2Cc3cc(O)ccc3[C@@]1(C)CCN2CCc1ccc(N)cc1,TGI,[1],36.2 µM
same,TGI,[2],> 100 µM
same,TGI,[3],33.4 µM
same,TGI,[4],> 100 µM
same,TGI,[5],34.8 µM
same,TGI,[6],28.2 µM
same,TGI,[7],> 100 µM
same,TGI,[8],> 100 µM
COC(=O)C1Cc2c(OC)ccc(OC)c2C(O)C1C(=O)OC (stereo unspecified),TGI,[1],> 100 µM
same,TGI,[2],> 100 µM
same,TGI,[3],> 100 µM
same,TGI,[4],> 100 µM
same,TGI,[5],> 100 µM
same,TGI,[6],> 100 µM
same,TGI,[7],> 100 µM
same,TGI,[8],> 100 µM
O=C(c1ccccc1)N1C(=O)N(c2ccccc2)C(=Nc2ccccc2)C1=Nc1ccccc1,TGI,[1],> 100 µM
same,TGI,[2],> 100 µM
same,TGI,[3],> 100 µM
same,TGI,[4],31.8 µM
same,TGI,[5],> 100 µM
same,TGI,[6],> 100 µM
same,TGI,[7],> 100 µM
same,TGI,[8],> 100 µM
CC1(C)CC(=O)c2c(nc3c(ccc4ccccc43)c2-c2ccc(NC(=O)CCC(=O)Nc3ccc(-c4c5c(nc6c4ccc4ccccc46)CC(C)(C)CC5=O)cc3)cc2)C1,TGI,[1],> 100 µM
same,TGI,[2],> 100 µM
same,TGI,[3],> 100 µM
same,TGI,[4],> 100 µM
same,TGI,[5],> 100 µM
same,TGI,[6],> 100 µM
same,TGI,[7],> 100 µM
same,TGI,[8],> 100 µM
COC(=O)c1c(CC(Cc2ccc3c(c2)CCCC3)C(=O)O)ccc2c1CCCC2 (stereo unspecified),TGI,[1],34.1 µM
same,TGI,[2],32.9 µM
same,TGI,[3],51.7 µM
same,TGI,[4],52.4 µM
same,TGI,[5],> 100 µM
same,TGI,[6],31.4 µM
same,TGI,[7],> 100 µM
same,TGI,[8],> 100 µM
CC(=O)O[C@H]1CC[C@@]2(C)C(=CC[C@@H]3[C@@H]2CC[C@]2(C)c4c(n[nH]c4C)C[C@@H]32)C1,TGI,[1],23 µM
same,TGI,[2],35.4 µM
same,TGI,[3],37.8 µM
same,TGI,[4],25 µM
same,TGI,[5],58.2 µM
same,TGI,[6],> 100 µM
same,TGI,[7],25.3 µM
same,TGI,[8],35.2 µM
COc1ccc(-c2oc3cc(OC)c(OC)c(O)c3c(=O)c2OC)cc1,TGI,[1],> 100 µM
same,TGI,[2],> 100 µM
same,TGI,[3],> 100 µM
same,TGI,[4],84.4 µM
same,TGI,[5],> 100 µM
same,TGI,[6],> 100 µM
same,TGI,[7],37.4 µM
same,TGI,[8],> 100 µM
O=C(O)c1nc2ccc(C(F)(F)F)cc2nc1Nc1ccc(Cl)c(Cl)c1,TGI,[1],15.2 µM
same,TGI,[2],25.7 µM
same,TGI,[3],20.6 µM
same,TGI,[4],18 µM
same,TGI,[5],15.8 µM
same,TGI,[6],21.5 µM
same,TGI,[7],29 µM
same,TGI,[8],24.9 µM
Cc1ccc(S(=O)C[C@](NC(=O)OCc2ccccc2)(Sc2ccccc2)C(F)F)cc1 (stereo partly specified),TGI,[1],22.4 µM
same,TGI,[2],35.9 µM
same,TGI,[3],86.9 µM
same,TGI,[4],29.9 µM
same,TGI,[5],74.2 µM
same,TGI,[6],19.4 µM
same,TGI,[7],28.3 µM
same,TGI,[8],32.4 µM
c1ccc2cc3c(NC4=NCCO4)cccc3cc2c1,TGI,[1],> 100 µM
same,TGI,[2],> 100 µM
same,TGI,[3],> 100 µM
same,TGI,[4],> 100 µM
same,TGI,[5],> 100 µM
same,TGI,[6],95 µM
same,TGI,[7],> 100 µM
same,TGI,[8],> 100 µM
Cc1ccc(-c2c(-c3ccccc3)[nH]c(C)c2C(=O)ONC(=O)c2ccccc2)cc1,TGI,[1],6.48 µM
same,TGI,[2],25.7 µM
same,TGI,[3],4.66 µM
same,TGI,[4],22.2 µM
same,TGI,[5],18.7 µM
same,TGI,[6],4.45 µM
same,TGI,[7],7.21 µM
same,TGI,[8],19.1 µM
O=C(Cn1cc(Br)c(=O)[nH]c1=O)c1ccc(-c2ccccc2)cc1,TGI,[1],> 13.9 µM
same,TGI,[2],> 49.6 µM
same,TGI,[3],39.2 µM
same,TGI,[4],> 100 µM
same,TGI,[5],> 45.9 µM
same,TGI,[6],> 27.4 µM
same,TGI,[7],6.51 µM
same,TGI,[8],> 100 µM
Cc1ccc(/C=C2\NC(=S)NC2=O)cc1,TGI,[1],> 100 µM
same,TGI,[2],> 100 µM
same,TGI,[3],> 100 µM
same,TGI,[4],> 100 µM
same,TGI,[5],> 100 µM
same,TGI,[6],> 100 µM
same,TGI,[7],> 100 µM
same,TGI,[8],> 100 µM
O=c1[nH]c(SCc2cccc([N+](=O)[O-])c2)nc2nc[nH]c12,TGI,[1],> 100 µM
same,TGI,[2],> 100 µM
same,TGI,[3],> 100 µM
same,TGI,[4],> 100 µM
same,TGI,[5],> 100 µM
same,TGI,[6],> 100 µM
same,TGI,[7],> 100 µM
same,TGI,[8],> 100 µM
CCOC(=O)c1cn2c(n1)sc1cc(OC)ccc12,TGI,[1],> 100 µM
same,TGI,[2],> 27.5 µM
same,TGI,[3],> 100 µM
same,TGI,[4],> 100 µM
same,TGI,[5],> 100 µM
same,TGI,[6],> 100 µM
same,TGI,[7],> 100 µM
same,TGI,[8],98.2 µM
O=[N+]([O-])C(/C(Cl)=C(\Cl)Br)=C(/Cl)SCc1ccccc1,TGI,[1],4.79 µM
same,TGI,[2],4.86 µM
same,TGI,[3],37.5 µM
same,TGI,[4],16.5 µM
same,TGI,[5],14.3 µM
same,TGI,[6],3.95 µM
same,TGI,[7],13.5 µM
same,TGI,[8],36.7 µM
Nc1ccc(-c2nc3ccc(F)cc3s2)cc1Cl,TGI,[1],> 100 µM
same,TGI,[2],> 100 µM
same,TGI,[3],> 100 µM
same,TGI,[4],> 100 µM
same,TGI,[5],> 100 µM
same,TGI,[6],> 100 µM
same,TGI,[7],> 59.9 µM
same,TGI,[8],> 100 µM
Cc1ccc2nc3n[nH]c(N)c3nc2c1,TGI,[1],> 100 µM
same,TGI,[2],> 100 µM
same,TGI,[3],> 100 µM
same,TGI,[4],> 100 µM
same,TGI,[5],> 100 µM
same,TGI,[6],> 100 µM
same,TGI,[7],> 100 µM
same,TGI,[8],> 100 µM
Clc1ccc(-c2cc(-c3cc4cc(Br)ccc4nc3Cl)on2)cc1,TGI,[1],21.8 µM
same,TGI,[2],15.4 µM
same,TGI,[3],> 50 µM
same,TGI,[4],> 50 µM
same,TGI,[5],> 50 µM
same,TGI,[6],21.4 µM
same,TGI,[7],> 50 µM
same,TGI,[8],27.4 µM
CC1(C)CO[P@@](=S)(c2ccccn2)O[C@@H]1c1ccccc1,TGI,[1],> 100 µM
same,TGI,[2],> 100 µM
same,TGI,[3],> 100 µM
same,TGI,[4],> 100 µM
same,TGI,[5],> 100 µM
same,TGI,[6],> 100 µM
same,TGI,[7],> 100 µM
same,TGI,[8],> 100 µM
COc1cc(/C=C2\C[C@H]3[C@@H]4CCC5=CC(=O)CC[C@]5(C)[C@H]4CC[C@]3(C)C2=O)cc(OC)c1OC,TGI,[1],> 100 µM
same,TGI,[2],> 60.6 µM
same,TGI,[3],> 66.9 µM
same,TGI,[4],> 51.4 µM
same,TGI,[5],> 43.2 µM
same,TGI,[6],> 100 µM
same,TGI,[7],> 89.4 µM
same,TGI,[8],> 100 µM
Cc1cn(-c2cccc(NC(=O)c3ccc(C)c(Nc4nccc(-c5cccnc5)n4)c3)c2)cn1,GI50,[1],1.44 µM
same,TGI,[1],3.07 µM
same,GI50,[2],2.09 µM
same,TGI,[2],3.65 µM
same,GI50,[3],2 µM
same,TGI,[3],3.77 µM
same,GI50,[4],1.65 µM
same,TGI,[4],3.35 µM
same,GI50,[5],2.33 µM
same,TGI,[5],13.5 µM
same,GI50,[6],1.73 µM
same,TGI,[6],3.48 µM
same,GI50,[7],1.59 µM
same,TGI,[7],2.97 µM
same,GI50,[8],1.59 µM
same,TGI,[8],3.32 µM
O=[N+]([O-])c1ccc(C2ON=C(c3ccccc3)N2C23CC4CC(CC(C4)C2)C3)cc1 (stereo unspecified),TGI,[1],> 10 µM
same,TGI,[2],> 10 µM
same,TGI,[3],> 10 µM
same,TGI,[4],> 10 µM
same,TGI,[5],> 10 µM
same,TGI,[6],> 10 µM
same,TGI,[7],> 10 µM
same,TGI,[8],> 10 µM
CCCCCCCCC/C=C1/CC(CO)(COC(=O)CC(C(C)C)C(C)C)OC1=O (stereo unspecified),TGI,[1],23.6 µM
same,TGI,[2],4.64 µM
same,TGI,[3],17.4 µM
same,TGI,[4],25.6 µM
same,TGI,[5],21.3 µM
same,TGI,[6],24.7 µM
same,TGI,[7],18.9 µM
same,TGI,[8],21.5 µM
COc1cc(C(=O)Oc2c(C(C)=O)sc3c2c(=O)n(-c2ccccc2)c(=S)n3-c2ccccc2)cc(OC)c1OC,TGI,[1],4.53 µM
same,TGI,[2],30.6 µM
same,TGI,[3],67.1 µM
same,TGI,[4],47.6 µM
same,TGI,[5],48.8 µM
same,TGI,[6],40.1 µM
same,TGI,[7],50.1 µM
same,TGI,[8],25.9 µM
